# Experimental data from patent publication US4831041A, “Imidazopyridine compounds and processes for preparation thereof” (Fujisawa Pharmaceutical Co., Ltd., priority 1986, dated 1989).
# Assays:
# Stress Ulcer = experiment: Inhibition on Stress Ulcer; type: in vivo, Sprague-Dawley rats; conditions: 32 mg/kg, oral, just before immobilization in water bath at 22° C.; seven hours; mean ulcer area vs control
# Experimental: (B) Inhibition on Stress Ulcer
# Five Sprague-Dawley rats weighing about 200 g were used per group. Each animal was immobilized in a small cage and put in a water bath allowing to respire. The temperature of the water bath kept at 22° C. The test compound was administered orally just before the immobilization. Seven hours later, the animals were sacrificed and their stomachs were removed. The stomach was then fixed with 2% formalin. The area of ulcers was measured for each animal. The mean area (mm^2) in the medicated animals was compared with that in the control animals.
# ethanol ulcer = experiment: Inhibition on ethanol ulcer; type: in vivo, Sprague-Dawley rats; conditions: 32 mg/kg, oral, 30 minutes before absolute ethanol (5 ml/kg); rats sacrificed one hour later; mean ulcer area vs control
# Experimental: (A) Inhibition on ethanol ulcer
# Five male Sprague-Dawley rats, aged 7 weeks and weighing about 200 g, were used per group for the study on ethanol ulcer after the fast for 24 hours.
# Test compound was suspended in 0.1% methylcellulose aqueous solution, and the suspension (5 ml/kg) was orally given to each rat.
# The control group was given a vehicle, i.e. 0.1% methylcellulose aqueous solution (5 ml/kg), alone in the same way.
# Absolute ethanol (5 ml/kg) was orally administered 30 minutes after dosing with test compound, and one hour later, the rats were sacrificed and their stomachs were removed. The area of ulcers of each rat was measured. The mean area […] in the medicated group was compared with that in the control group.
SMILES,Inhibition % (stress ulcer area) (Stress Ulcer) [%],Inhibition % (ethanol ulcer area) (ethanol ulcer) [%]
"C#CCc1c(C)nc2c(OCc3c(C)cccc3NC(N)=O)cccn12 [Test Compound (3), 2-methyl-8-(2-methyl-6-ureidobenzyloxy)-3-(2propynyl)imidazo[1,2-a]pyridin]",100,–
"C#CCc1c(C)nc2c(OCc3c(C)cccc3NC(=O)OC)cccn12 [Test Compound (1), 8-(2-Methoxycarbonylamino-6-methylbenzyloxy)-2-methyl-3-(2-propynyl)imidazo[1,2-a]pyridine]",100,93.2
"C#CCc1c(C)nc2c(OCc3c(C)cccc3NC(C)=O)cccn12 [Test Compound (2), 8-(2-Acetamido-6-methylbenzyloxy)-2-methyl-3(2-propynyl)imidazo[1,2-a]pyridine]",100,–
"C#CCc1c(C)nc2c(OCc3c(C)cccc3NC(N)=S)cccn12 [Test Compound (4), 2-Methyl-8-(2-methyl-6-thioureidobenzyloxy)-3(2-propynyl)imidazo[1,2-a]pyridine]",100,–
